Reference: PubChem BioAssay (NCI)
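Abbreviation: GI50, concentration required for 50% inhibition of growth. TGI: concentration producing complete growth inhibition.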

Experiments:
Assay in all cases: inhibition of tumour cell growth, NCI panel, 384-well format
[1] = tested on: NCI-H23 lung
[2] = tested on: NCI-H322M lung
[3] = tested on: NCI-H460 NSCLC
[4] = tested on: NCI-H522 lung
[5] = tested on: NCI/ADR-RES ovarian
[6] = tested on: OVCAR-3 ovarian
[7] = tested on: OVCAR-4 ovarian
[8] = tested on: OVCAR-5 ovarian
[9] = tested on: OVCAR-8 ovarian
[10] = tested on: PC-3 prostate
[11] = tested on: RPMI-8226 leukemia
[12] = tested on: RXF 393 renal
[13] = tested on: SF-268 CNS
[14] = tested on: SF-295 CNS
[15] = tested on: SF-539 CNS
[16] = tested on: SK-MEL-28 melanoma
[17] = tested on: SK-MEL-5 melanoma
[18] = tested on: SK-OV-3 ovarian
[19] = tested on: SN12C renal
[20] = tested on: SNB-19 CNS
[21] = tested on: SNB-75 CNS
[22] = tested on: SR leukemia
[23] = tested on: SW-620 colon
[24] = tested on: T-47D breast
[25] = tested on: TK-10 renal
[26] = tested on: U251 glioblastoma
[27] = tested on: UACC-257 melanoma
[28] = tested on: UACC-62 melanoma
[29] = tested on: UO-31 renal

CNC(=O)c1ccc(N2C(=S)N(c3cnc(C#N)c(C(F)(F)F)c3)C(=O)C23CCC3)cc1F showed a GI50 [1] greater than 100 µM, a TGI [1] greater than 100 µM and a GI50 [2] greater than 100 µM. For the same compound, the TGI [2] was greater than 100 µM, the GI50 [3] was greater than 100 µM and the TGI [3] was greater than 100 µM. It also gave a GI50 [4] greater than 100 µM, a TGI [4] greater than 100 µM and a GI50 [5] greater than 100 µM. For the same compound, the TGI [5] was greater than 100 µM, the GI50 [6] was greater than 100 µM and the TGI [6] was greater than 100 µM. It also gave a GI50 [7] of 90.4 µM, a TGI [7] greater than 100 µM and a GI50 [8] greater than 100 µM. It also gave a TGI [8] greater than 100 µM, a GI50 [9] greater than 100 µM and a TGI [9] greater than 100 µM. It also gave a GI50 [10] greater than 100 µM, a TGI [10] greater than 100 µM and a GI50 [11] of 69.1 µM. It also gave a TGI [11] greater than 100 µM, a GI50 [12] greater than 62.4 µM and a TGI [12] greater than 100 µM. The GI50 [13] was greater than 100 µM, the TGI [13] was greater than 100 µM and the GI50 [14] was greater than 100 µM. It also gave a TGI [14] greater than 100 µM, a GI50 [15] greater than 100 µM and a TGI [15] greater than 100 µM. It also gave a GI50 [16] greater than 100 µM, a TGI [16] greater than 100 µM and a GI50 [17] greater than 100 µM. The TGI [17] was greater than 100 µM, the GI50 [18] was greater than 100 µM and the TGI [18] was greater than 100 µM. For the same compound, the GI50 [19] was greater than 100 µM, the TGI [19] was greater than 100 µM and the GI50 [20] was greater than 100 µM. It also gave a TGI [20] greater than 100 µM, a GI50 [21] greater than 100 µM and a TGI [21] greater than 100 µM. For the same compound, the GI50 [22] was 29 µM, the TGI [22] was 100 µM and the GI50 [23] was greater than 100 µM. For the same compound, the TGI [23] was greater than 100 µM, the GI50 [24] was greater than 72.4 µM and the TGI [24] was greater than 100 µM. For the same compound, the GI50 [25] was greater than 100 µM, the TGI [25] was greater than 100 µM and the GI50 [26] was greater than 100 µM. It also gave a TGI [26] greater than 100 µM, a GI50 [27] greater than 100 µM and a TGI [27] greater than 100 µM. It also gave a GI50 [28] greater than 100 µM, a TGI [28] greater than 100 µM and a GI50 [29] greater than 100 µM. For the same compound, the TGI [29] was greater than 100 µM.
